From ChEMBL document CHEMBL1146118, “Design, synthesis and biological evaluations of novel oxindoles as HIV-1 non-nucleoside reverse transcriptase inhibitors. Part I” (Bioorg Med Chem Lett, 2006)

Key:
[1] = system: Human immunodeficiency virus 1; assay: Antiviral activity against HIV1 in HEK293T cells; format: functional, organism-based; conditions: Human immunodeficiency virus 1, HEK-293T
HEK293 = assay: Cytotoxicity against HEK293T cells; format: functional; conditions: Homo sapiens

SMILES | EC50 [1] [µM] | CC50 (HEK293) [µM]
CCOC(=O)[C@H]1C[C@]12C(=O)Nc1ccc(-c3ccccc3)cc12 | 0.126 | > 10
CCOC(=O)[C@H]1C[C@]12C(=O)Nc1ccc(N)cc12 | 2.7 | 1.99
O=C([C@H]1C[C@]12C(=O)Nc1ccc(Br)cc12)N1CCSC1 | 0.18 | > 10
CCCNC(=O)[C@H]1C[C@]12C(=O)Nc1ccc(Br)cc12 | > 10 | > 10
CCOC(=O)[C@H]1C[C@]12C(=O)Nc1c(C)cc(Cl)cc12 | 2.25 | > 10
CCOC(=O)[C@H]1C[C@]12C(S)=Nc1ccc(Br)cc12 | > 10 | > 10
CCOC(=O)/C=C1\C(=O)Nc2ccc(Br)cc21 | > 10 | > 10
CCOC(=O)[C@H]1C[C@]12C(=O)Nc1ccc(OC(F)(F)F)cc12 | 2.23 | > 10
CCCCCC#CC1CC12C(=O)Nc1ccc(Br)cc12 (stereo not given) | 0.463 | 6.62
CCOC(=O)[C@H]1C[C@]12C(=O)Nc1ccc(I)cc12 | 0.486 | > 10
CCOC(=O)[C@H]1C[C@]12C(=O)Nc1ccc(C#N)cc12 | 0.066 | > 10
CCOC(=O)[C@H]1C(C)(C)[C@]12C(=O)Nc1ccc(Br)cc12 | 0.015 | > 10
O=C(O)[C@H]1C[C@]12C(=O)Nc1ccc(Br)cc12 | 7.63 | > 10
CCOC(=O)[C@H]1C[C@]12C(=O)Nc1ccccc12 | 0.279 | > 10
CON(C)C(=O)[C@H]1C[C@]12C(=O)Nc1ccc(Br)cc12 | 0.656 | > 10
CCOC(=O)[C@H]1C[C@]12C(=O)Nc1ccc(Cl)cc12 | 0.059 | > 10
CCOC(=O)[C@H]1C[C@]12C(=O)Nc1ccc(Br)cc12 | 0.066 | > 10
Cc1ccnc2c1NC(=O)c1cccnc1N2C1CC1 [NEVIRAPINE] | 0.05 | > 10
CCOC(=O)[C@H]1C[C@]12C(=O)Nc1ccc(F)cc12 | 0.289 | > 10
O=C1Nc2ccc(Br)cc2C12CC2COc1ccccc1 (stereo not given) | 5.62 | > 10
CCOC(=O)[C@H]1C[C@]12C(=O)Nc1ccc([N+](=O)[O-])cc12 | 1.03 | > 10
CCOC(=O)[C@H]1C[C@]12C(=O)Nc1cc(Cl)ccc12 | > 10 | > 10
CCOC(=O)[C@H]1C[C@]12C(=O)Nc1c(Cl)cc(Cl)cc12 | 7.36 | > 10
CC(C)OC(=O)[C@H]1C[C@]12C(=O)Nc1ccc(Br)cc12 | 0.059 | > 10

SMILES | EC50 [1] [µM] | CC50 (HEK293) [µM]
CCN(CC)C(=O)[C@H]1C[C@]12C(=O)Nc1ccc(Br)cc12 | 1.42 | > 10
COC(=O)CC1CC12C(=O)Nc1ccc(Br)cc12 (stereo not given) | > 10 | > 10
CCOC(=O)CC1(C)C(=O)Nc2ccc(Br)cc21 (stereo not given) | > 10 | > 10
CCOC(=O)[C@H]1[C@H](CC)[C@]12C(=O)Nc1ccc(Br)cc12 | 0.03 | > 10
CCOC(=O)[C@@H]1C[C@]12C(=O)Nc1ccc(Br)cc12 | > 10 | > 10
CCOC(=O)[C@H]1C[C@]12C(=O)N(C)c1ccc(Br)cc12 | > 10 | > 10
CCCCC(=O)[C@H]1C[C@]12C(=O)Nc1ccc(Br)cc12 | 0.62 | > 10
CCOC(=O)[C@H]1C[C@]12C(=O)Nc1ccc(-c3cccs3)cc12 | 2.65 | 1.94
O=C([C@H]1C[C@]12C(=O)Nc1ccc(Br)cc12)N1CCCC1 | 0.191 | > 10
CCOC(=O)[C@H]1C[C@]12C(=O)Nc1ccc(-c3cccn3C)cc12 | 0.358 | 8.06
O=C([C@H]1C[C@]12C(=O)Nc1ccc(Br)cc12)N1CCCCC1 | 0.586 | > 10
CCOC(=O)/C=C1/C(=O)Nc2ccc(Br)cc21 | 2.28 | > 10
O=C(OCc1ccccc1)[C@H]1C[C@]12C(=O)Nc1ccc(Br)cc12 | 5.58 | > 10
CC(C)(C)OC(=O)[C@H]1C[C@]12C(=O)Nc1ccc(Br)cc12 | 0.04 | > 10
O=C1Nc2ccc(Cl)cc2[C@@](C#CC2CC2)(C(F)(F)F)O1 [EFAVIRENZ] | – | 10
CCCCC1CC12C(=O)Nc1ccc(Br)cc12 (stereo not given) | 0.197 | > 10
CCOC(=O)[C@H]1C[C@]12C(=O)Nc1ccc(C)cc12 | 1.09 | > 10
CCOC(=O)[C@H]1C(CC)(CC)[C@]12C(=O)Nc1ccc(Br)cc12 | > 10 | > 10
CCOC(=O)[C@H]1[C@@H](CC)[C@]12C(=O)Nc1ccc(Br)cc12 | 1.21 | > 10
C=Cc1ccc2c(c1)[C@@]1(C[C@@H]1C(=O)OCC)C(=O)N2 | > 10 | > 10
CCOC(=O)[C@H]1C2(CCCC2)[C@]12C(=O)Nc1ccc(Br)cc12 | 1.46 | > 10
CCOC(=O)[C@@]1(C)C[C@]12C(=O)Nc1ccc(Br)cc12 | 33.3 | > 10
CCOC(=O)[C@H]1C[C@]12C(=O)Nc1cccc(Br)c12 | > 10 | > 10
CCOC(=O)[C@H]1C[C@]12C(=O)Nc1ccc(-c3ccco3)cc12 | 0.608 | 2.19
